Results: patent publication US5684017A, “Benzenesulfonylimine derivatives as inhibitors of IL-1 action” (Merrell Pharmaceuticals Inc., priority 1996, dated 1997)

Tests used:
[1] = Interleukin-1-Beta-Induced Tumor Necrosis Factor Alpha Release by Human Macrophages; format: cell-based; details: Macrophage; recombinant human IL-1β 20 ng/mL; compound 1 h before stimulation; supernatants after 24 h, ELISA; read-out: IC50 (IL-1β-induced TNFα release)
Protocol: (§1) The compounds of Formula I inhibit IL-1 action. One mechanism for inhibiting IL-1 action is to inhibit IL-1 production. Inhibition of IL-1 production was tested using lipopolysaccharide (LPS) stimulated macrophages. Inhibition of IL-1 induced production of cytokines was tested by measuring the inhibition of TNFα (tumor necrosis factor alpha) synthesis from IL-1 stimulated macrophages. The protocols for these test procedures are described below.
Interleukin-1-Beta-Induced Tumor Necrosis Factor Alpha Release by Human Macrophages
To determine the inhibitory concentrations for the test compounds against interleukin-1 beta (IL-1β)-induced tumor necrosis factor alpha (TNFα) release by human peripheral blood monocyte-derived macrophages. It should be understood that this is a test of the ability of the test compounds to modulate, i.e. inhibit, the activity of IL-1β by measuring the inhibition of IL-1β induced release of TNFα.
Source Human Peripheral Blood Monocyte-Derived Macrophages:
(§2) Venous blood is collected form healthy volunteers in 10 mM sodium citrate (2 mL sterile sodium citrate for 40 mL blood). Mononuclear cells are isolated with the Leucoprep tubes (Becton Dickinson, product number 2752 or 2751) spun at 1500 g for fifteen minutes. Aliquots of 3×10^6 mononuclear cells are added to 24-well tissue culture plates (Corning) in RPMI-1640. After 1 hour incubation at 37° C., non-adherent cells are gently rinsed off. The adherent cells (macrophages) are given back fresh medium RPMI-1640, 1 mL/well.
Macrophage monolayer cultures are pretreated with compounds one hour prior to IL-1β (20 ng/mL, recombinant human IL-1β) stimulation. Compounds dissolved in 95% ethanol or DMSO would require additional monolayer cultures treated with 10 or 2.5 μl 95% ethanol or DMSO, respectively. Culture supernatants are collected 24 hours later and are tested for TNF-α using a commercial ELISA kit (Cistron).
The TNF-α concentration in the culture supernatant is calculated by a standard curve generated from a series of known concentrations. Potency of compound is reported in IC50 (UM).

[2] = system: interleukin-1 beta (IL-1β) release (production) by human peripheral blood monocyte-derived macrophages; experiment: Endotoxin-Induced Interleukin-1 Beta Release by Human Macrophages; format: cell-based; details: Macrophage, endotoxin 20 ng/mL (Salmonella typhimurium Re-mutant), compound 1 h before stimulation, supernatants after 24 h, ELISA
Protocol: as §1
Endotoxin-Induced Interleukin-1 Beta Release by Human Macrophages
The objective of this test is to determine the inhibitory concentrations for the test compounds against endotoxin-induced interleukin-1 beta (IL-1β) release (production) by human peripheral blood monocyte-derived macrophages.
The source of the human peripheral blood monocyte-derived macrophages is as follows:
as §2, with “collected from” for “collected form”, “(Becton Dickenson,” for “(Becton Dickinson,”, “for 15” for “for fifteen”, “After one” for “After 1”, “off. […]” for “off. The adherent cells (macrophages) are given back fresh medium RPMI-1640, 1 mL/well.”
The IL-1β concentration in the culture supernatant is calculated by a standard curve generated from a series of known concentrations. […]

[3] = mammal having an arthritic condition; U.S. Pat. No. 5,122,534; cited from earlier work
IL-1 production = details: cited from earlier work

Compound	IC50 [1] [nM]	IC50 [2] [nM]	serum LDL cholesterol [3]	serum triglycerides [3]	total level of serum cholesterol [3]	block IL-1 production (IL-1 production)
O=C(c1ccccc1)c1cc(=NS(=O)(=O)c2ccccc2)c2ccccc2o1 [2-Benzoyl-4-benzenesulfonylimino-4H-chromene]	1300	–	–	–	–	–
CC(=O)c1cc(=NS(=O)(=O)c2ccccc2)c2c(Cl)cc(Cl)cc2[nH]1 [5,7-Dichloro-2-acetyl-4-[benzenesulfonylimino]-1,4-dihydroquinoline]	8000	4000	–	–	–	–
O=C(c1ccccc1)c1cc(=NS(=O)(=O)c2ccccc2)c2c(Cl)cc(Cl)cc2[nH]1 [5,7-Dichloro-2-benzoyl-4-[benzenesulfonylimino]-1,4-dihydroquinoline]	3000	2000	–	–	–	–
NC(=O)N1C(=O)/C(=C(\O)c2cccs2)c2cc(Cl)ccc21 [Tenidap]	–	–	reduces	reduces	reduces	known to block IL-1 production
